According to US20150209335A1, “METHODS AND SMALL MOLECULE THERAPEUTICS COMPRISING FUSED ELPS” (UNIVERSITY OF SOUTHERN CALIFORNIA, priority 2012, published 2015):

B1: I48S48: ELP diblock copolymer (Val-Pro-Gly-Ile-Gly)48(Val-Pro-Gly-Ser-Gly)48 (SEQ ID NO: 12), forms nanoparticles (protein)
chain: VPGIGVPGIGVPGIGVPGIGVPGIGVPGIGVPGIGVPGIGVPGIGVPGIGVPGIGVPGIGVPGIGVPGIGVPGIGVPGIGVPGIGVPGIGVPGIGVPGIGVPGIGVPGIGVPGIGVPGIGVPGIGVPGIGVPGIGVPGIGVPGIGVPGIGVPGIGVPGIGVPGIGVPGIGVPGIGVPGIGVPGIGVPGIGVPGIGVPGIGVPGIGVPGIGVPGIGVPGIGVPGIGVPGIGVPGIGVPGIGVPGSGVPGSGVPGSGVPGSGVPGSGVPGSGVPGSGVPGSGVPGSGVPGSGVPGSGVPGSGVPGSGVPGSGVPGSGVPGSGVPGSGVPGSGVPGSGVPGSGVPGSGVPGSGVPGSGVPGSGVPGSGVPGSGVPGSGVPGSGVPGSGVPGSGVPGSGVPGSGVPGSGVPGSGVPGSGVPGSGVPGSGVPGSGVPGSGVPGSGVPGSGVPGSGVPGSGVPGSGVPGSGVPGSGVPGSGVPGSG
B2: F24S24: ELP diblock copolymer (Val-Pro-Gly-Phe-Gly)24(Val-Pro-Gly-Ser-Gly)24 (SEQ ID NO: 13), forms nanoparticles (protein)
chain: VPGFGVPGFGVPGFGVPGFGVPGFGVPGFGVPGFGVPGFGVPGFGVPGFGVPGFGVPGFGVPGFGVPGFGVPGFGVPGFGVPGFGVPGFGVPGFGVPGFGVPGFGVPGFGVPGFGVPGFGVPGSGVPGSGVPGSGVPGSGVPGSGVPGSGVPGSGVPGSGVPGSGVPGSGVPGSGVPGSGVPGSGVPGSGVPGSGVPGSGVPGSGVPGSGVPGSGVPGSGVPGSGVPGSGVPGSGVPGSG

Experiments:
[1] = in vivo; cited from earlier work
[2] = system: interferon gamma (IFN gamma); test: interferon gamma expression in NOD mouse lacrimal gland, real time RT-PCR; format: in vivo; conditions: NOD mice, 7-day treatment period
Excerpt: Quantitation was achieved using real time RT-PCR. Expression of IFN-gamma was quantified after a 7-day treatment period with PBS, Free Rapa, and FSI Rapa.

[3] = system: MDA-MB-468 rapamycin sensitive breast cancer cell line; test: MTS cell viability assay, MDA-MB-468; format: cell-based; conditions: MDA-MB-468 cell assay
Procedure: Each mouse was injected with 3×10^6 MDA-MB-468 cells s.c. in mammary fat pads. […] 3 times a week. […] Therefore, the dose was reduced to only once a week.

[4] = toxicity and body weight in the MDA-MB-468 xenograft mouse study; conditions: after first 2 doses, dosed 3 times a week
Excerpt: 3 times a week. […] Therefore, the dose was reduced to only once a week.

[5] = system: lymphocytic infiltration of the lacrimal gland; test: lymphocytic infiltration of the lacrimal gland in male NOD mice (autoimmune dacryoadenitis); format: in vivo, mouse; conditions: 12 week old male NOD mice, tail vein, one week of treatment
Excerpt: The bottom panel is image analysis that was used to quantify % of tissue section containing lymphocyte foci. *p=0.003, **P=5×10·5, ***P=0.01, ****P=0.0009.

[6] = Rapa encapsulation and release from ELP nanoparticles, dialysis under sink conditions, RP-HPLC; format: physicochemical; conditions: preliminary experiments
Procedure: Dialysis under sink conditions was used track the loss of Rapa from the nanoparticles. Mean±SD (n=3).
A two phase method was developed to encapsulate Rapa into the ELP nanoparticles. An aqueous phase PBS containing S48I48 or FKBP-S48I48 was mixed with an organic phase hexane/EtOH containing Rapa in a small glass vial. The vial was kept stirred and heated up to the CMT of S48I48 or FKBP-S48I48. A nitrogen flow was applied to facilitate the evaporation of the hexane/EtOH phase. A 13.2K 10 min centrifugation was performed to remove the insoluble Rapa after the organic phase evaporated out. 100 μL of the sample was filtered and injected into a C-18 reverse phase HPLC column to analyze the amount of the Rapa that was initially encapsulated. Rapa releasing experiment was performed under a sink condition of H2O dialysis. Samples were collected in the dialysis cassette at time points of 0 h, 1 h, 2 h, 4 h, 6 h, 9 h, 19.5 h, 27 h, 31 h and 48 h. RP-HPLC was used to determine the amount of Rapa that was retained inside the ELP nanoparticle core.

[7] = dynamic light scattering (DLS) size of ELP nanoparticles; format: physicochemical; conditions: concentration of 25 uM
Excerpt: ELP diblock copolymers with hydrophobic and hydrophilic guest residues at opposite ends of the polymer (e.g. (Val-Pro-Gly-Ile-Gly) 48(Val-Pro-Gly-Ser-Gly)48 (SEQ ID NO: 12) called I48S48) can form nanoparticles. A class of ELP block copolymers with hydrophobic block:hydrophilic block=1:1 have been confirmed to form different sizes of stable nanoparticles. For instances, (Val-Pro-Gly-Ile-Gly)48(Val-Pro-Gly-Ser-Gly)48 (SEQ ID NO: 12) short name: 148S48; (Val-Pro-Gly- Phe-Gly)24(Val-Pro-Gly-Ser-Gly)24 (SEQ ID NO: 13)) short name F24S24. Dynamic light scattering (DLS) can be applied to measure the size of ELP nanoparticles. At concentration of 25 uM, ELP block copolymer 148S48 forms 24 nm in radius nanoparticles; however, F24S24 forms nanoparticles with 15 nm hydrodynamic radius. In order to actually observe the morphology of ELP nanoparticles, transmission electron microscopy (TEM) and cryo-transmission electron microscopy (Cryo-TEM) can be applied. In TEM, 1% of Uranyl acetate solution is used to negatively stain ELP nanoparticles. Therefore, ELP nanoparticles are expected to be observed as hollow spheres. Different from TEM in which ELP samples are loaded on a grid and dry at room temperature. Cryo-TEM studies ELP samples at cryogenic temperatures, generally liquid nitrogen temperatures. […]

Row | Molecule | bioavailability of the plain drug [1] | IFN gamma expression in lacrimal gland [2] | rapamycin dose (concentration) that could be reached [3] | body weight lost [4] | lymphocytic infiltration (lymphocyte foci) of lacrimal gland [5] | rapamycin encapsulation into plain ELP nanoparticles [6] | nanoparticle hydrodynamic radius [7] [nm]
1 | CO[C@H]1C[C@@H]2CC[C@@H](C)[C@@](O)(O2)C(=O)C(=O)N2CCCC[C@H]2C(=O)O[C@H]([C@H](C)C[C@@H]2CC[C@@H](O)[C@H](OC)C2)CC(=O)[C@H](C)/C=C(\C)[C@@H](O)[C@@H](OC)C(=O)[C@H](C)C[C@H](C)/C=C/C=C/C=C/1C [rapamycin, (3S,6R,7E,9R,10R,12R,14S,15E,17E,19E,21S,23S,26R,27R,34aS)-9,10,12,13,14,21,22,23,24,25,26,27,32,33,34,34a-hexadecahydro-9,27-dihydroxy-3-[(1R)-2-[(1S,3R,4R)-4-hydroxy-3-methoxycyclohexyl]-1-methylethyl]-10,21-dimethoxy-6,8,12,14,20,26-hexamethyl-23,27-epoxy-3H-pyrido[2,1-c][1,4]-oxaazacyclohentriacontine-1,5,11,28,29 (4H,6H,31H)-pentone] | less than 20% | sizeable reduction | could not reach such a high rapamycin concentration | about 10% | less lymphocyte invasion |  | 
2 | B1 |  |  |  |  |  | efficiently encapsulated | 24
3 | B2 |  |  |  |  |  | efficiently encapsulated | 15
